Assay results from patent publication US8293979B2, “Weed controller metabolism proteins, genes, thereof and use of the same” (Sumitomo Chemical Company, Limited, priority 2001, dated 2012).

What was measured:
Ivyleaf morningglory = assay: Herbicidal activity test, foliage treatment; format: in vivo, Ipomoea hederacea; design: key: 0: situations in which the condition of sprouting or vegetation at the time of examination of the plant utilized for the test was compared with and showed totally or substantially no difference with that of the untreated application; 10: situations in which the plant completely withered or the sprouting or vegetation was completely suppressed; conditions: sprayed onto the foliage of plants cultivated 10 days, investigated after 16 days in a greenhouse
Protocol: (§1) Soil was packed into a round plastic pot having a diameter of 10 cm and depth of 10 cm. Barnyardgrass, Blackgrass, Ivyleaf morningglory were seeded and cultivated in a greenhouse for 10 days. Five (5) parts of the test compound, 6 parts of sorpol3005X (Toho Chemical Company) and 89 parts of xylene were well mixed to produce an emulsion. A certain amount thereof was diluted with water containing 0.1% (v/v) of a sticking agent at a proportion of 1000 L for 1 hectare and was spread uniformly with a spray-gun onto the all sides of the foliage from above the plant cultivated in the above pot. After cultivating the plants for 16 days in a greenhouse, the herbicidal activity of the test compound was investigated.
(§2) In the above Tables 3 and 4, the strength of the herbicidal activity is shown stepwise as 0, 1, 2, 3, 4, 5, 6, 7, 8, 9, and 10.

[1] = tested on: present invention protein (A22); assay: Detection of the ability to convert compound (II) to compound (III), E. coli pKSN1558BF extract; format: in vitro ADME, Streptomyces pallidus IFO 13434T; conditions: 3 ppm of compound (II) labeled with 14C, components A, B, 10 minutes at 30° C.
Protocol: (§3) Reaction solutions of 30 μl were prepared and maintained for 10 minutes at 30° C. The reaction solutions consisted of a 0.1M potassium phosphate buffer (pH7.0) containing 3 ppm of compound (II) labeled with ^14C, 2 mM of β-NADPH (hereinafter, referred to as “component A”) (Oriental Yeast Company), 2 mg/ml of a ferredoxin derived from spinach (hereinafter referred to as “component B”) (Sigma Company), 0.1 U/ml of ferredoxin reductase (hereinafter, referred to as “component C”) (Sigma Company) and 23 μl of the supernatant fraction recovered in Example 32(2). Similarly to Example 4(3), the reaction solutions after the maintenance were extracted with ethyl acetate and the extracted layers were TLC analyzed. […] A spot corresponding to compound (III) was detected from the reaction solution containing E. coli pKSN849AF extract. In contrast, such a spot was not detected from the reaction solution containing E. coli pKSN2 extract.
Similarly to Example 32(3), reaction solutions of 30 μl were prepared and maintained for 10 minutes at 30° C. […] The reaction solutions after the maintenance were extracted with ethyl acetate and the extracted layers were TLC analyzed. […] A spot corresponding to compound (III) was detected from the reaction solution containing E. coli pKSN1558BF extract. In contrast, such a spot was not detected from the reaction solution containing E. coli pKSN2 extract.

[2] = tested on: present invention protein (A25); assay: Detection of the ability to convert compound (II) to compound (III), E. coli pKSN1609F extract; format: in vitro ADME, Streptomyces steffisburgensis IFO 13446T; conditions: 3 ppm of compound (II) labeled with 14C, components A, B, 10 minutes at 30° C.
Protocol: as §3
Similarly to Example 32(3), reaction solutions of 30 μl were prepared and maintained for 10 minutes at 30° C. […] The reaction solutions after the maintenance were extracted with ethyl acetate and the extracted layers were TLC analyzed. […] A spot corresponding to compound (III) was detected from the reaction solution containing E. coli pKSN1609F extract. In contrast, such a spot was not detected from the reaction solution containing E. coli pKSN2 extract.

Barnyardgrass = assay: Herbicidal activity test, foliage treatment; format: in vivo, Echinochloa crus-galli; design: key: 0: situations in which the condition of sprouting or vegetation at the time of examination of the plant utilized for the test was compared with and showed totally or substantially no difference with that of the untreated application; 10: situations in which the plant completely withered or the sprouting or vegetation was completely suppressed; conditions: sprayed onto the foliage of plants cultivated 10 days, investigated after 16 days in a greenhouse
Protocol: as §1, §2

[3] = tested on: leaf pieces derived from the tobacco to which the present invention DNA (A1) was introduced; assay: Herbicidal damage of tobacco leaf pieces on MS agar medium containing compound (II); format: cell-based, Nicotiana tabacum strain SR1; conditions: MS agar medium containing 0.1 mg/L of compound (II), in the light at room temperature, 7th day of culturing
Protocol: Then, according to the method described in Manual for Gene Manipulation of Plant (by Hirofumi UCHIMIYA, Kodan-sha Scientific, 1992), the gene was introduced into tobacco. Agrobacterium strains bearing the above plasmids were each cultured at 28° C. overnight in LB medium containing 300 mg/L streptomycin, 100 mg/L rifampicin and 25 mg/L kanamycin, and then leaf pieces of tobacco (Nicotiana tabacum strain SR1) cultured sterilely were dipped in the liquid culture medium. The leaf pieces were planted and cultured at room temperature for 2 days in the light in MS agar medium (MS inorganic salts, MS vitamins, 3% sucrose and 0.8% agar; described in Murashige T. and Skoog F., Physiol. Plant. (1962) 15, p 473) containing 0.1 mg/L of naphthalene acetic acid and 1.0 mg/L of benzyl aminopurine. Then, the leaf pieces were washed with sterilized water and cultured for 7 days on MS agar medium containing 0.1 mg/L of naphthalene acetic acid, 1.0 mg/L of benzyl aminopurine and 500 mg/L of cefotaxime. Next, the leaf pieces were transplanted and cultured in MS agar medium containing 0.1 mg/L of naphthalene acetic acid, 1.0 mg/L of benzyl aminopurine, 500 mg/L of cefotaxime and 100 mg/L of kanamycin. The culture was conducted continuously for 4 months while transplanting the leaf pieces to fresh medium of the same composition at intervals of 4 weeks. […]

C[C@@H](Oc1cc(-n2c(=O)cc(C(F)(F)F)n(C)c2=O)c(F)cc1Cl)C(=O)O [compound (II)]
Herbicidal Activity Ivyleaf Morningglory (Ivyleaf morningglory; 125 g/ha): 10
Herbicidal Activity Ivyleaf Morningglory (Ivyleaf morningglory; 500 g/ha): 10
spot corresponding to compound (III) labeled with 14C (TLC) [1]: detected
spot corresponding to compound (III) labeled with 14C (TLC) [2]: detected
Herbicidal Activity Barnyardgrass (Barnyardgrass; 125 g/ha): 10
Herbicidal Activity Barnyardgrass (Barnyardgrass; 500 g/ha): 10
herbicidal damage of the leaf pieces [3]: grew continuously
